Molecules are shown by their SMILES. Bounds are passed on as bounds.

47 compounds from BindingDB's records for doi:10.1016/j.bmc.2010.11.049 (Bryn Mawr College, 2011) can be followed below.

This experiment in a line: Inhibition of HIV1 YU2 gp120 binding to CD4 expressing Cf2Th-CD4/CCR5 cells assessed as inhibition of viral infection after 48 hrs.
As usually defined, the IC50 is the point on the concentration scale where inhibition reaches its midpoint. As to `Cc1cc(OCC(=O)NCc2nnc[nH]2)ccc1Cl` [N-((1H-1,2,4-triazol-3-yl)methyl)-2-(4-chloro-3-methylphenoxy)acetamide], the IC50 is greater than 100 µM.
Regarding `Nc1ncc(CNC(=O)C(=O)Nc2ccc(Cl)c(F)c2)cn1` [N1-((2-aminopyrimidin-5-yl)methyl)-N2-(4-chloro-3-fluorophenyl)oxalamide], the IC50 was greater than 100 µM.
The figure for `CC(C)(C)c1cc(CNC(=O)C(=O)Nc2ccc(Cl)c(F)c2)[nH]n1` [N1-((5-tert-butyl-1H-pyrazol-3-yl)methyl)-N2-(4-chloro-3-fluorophenyl)oxalamide] is greater than 100 µM; for `CCn1ncnc1C(C)NC(=O)C(=O)Nc1ccc(Cl)c(F)c1` (configuration not stated) [N1-(4-chloro-3-fluorophenyl)-N2-(1-(1-ethyl-1H-1,2,4-triazol-5-yl)ethyl)oxalamide] it is greater than 100 µM.
Next, `CCN1CCCC1CNC(=O)C(=O)Nc1ccc(Cl)c(F)c1` (configuration not stated) [N1-(4-chloro-3-fluorophenyl)-N2-((1-ethylpyrrolidin-2-yl)methyl)oxalamide]: 85.2 µM; `O=C(Nc1ccc(Cl)c(F)c1)C(=O)NC1CCN(C(=O)c2ccccc2)CC1` [N1-(1-benzoylpiperidin-4-yl)-N2-(4-chloro-3-fluorophenyl)oxalamide]: greater than 100 µM.
The figure for `O=C(NCc1[nH]nc2c1CCCCC2)C(=O)Nc1ccc(Cl)c(F)c1` [N1-(4-chloro-3-fluorophenyl)-N2-((1,4,5,6,7,8-hexahydrocyclohepta[c]pyrazol-3-yl)methyl)oxalamide] is greater than 100 µM; for `COc1cccc(N[C@@H](C)C(=O)Nc2ccc(Br)cc2)c1` [(S)-N-(4-bromophenyl)-2-(3-methoxyphenylamino)propanamide] it is greater than 100 µM.
As for `CC1CCCN(CCC(=O)Nc2ccc(Br)cc2)C1` (configuration not stated) [N-(4-bromophenyl)-3-(3-methylpiperidin-1-yl)propanamide], the IC50 is greater than 100 µM.
The figure for `CC1(C)O[C@@H](CN)[C@H](CNC(=O)C(=O)Nc2ccc(Cl)c(F)c2)O1` [N1-(((4S,5S)-5-(aminomethyl)-2,2-dimethyl-1,3-dioxolan-4-yl)methyl)-N2-(4-chloro-3-fluorophenyl)oxalamide] is 76.6 µM.
The figure for `CC1(C)CC(NC(=O)C(=O)Nc2ccc(Cl)cc2OCc2ccccc2)CC(C)(C)N1` [N1-(2-(benzyloxy)-4-chlorophenyl)-N2-(2,2,6,6-tetramethylpiperidin-4-yl)oxalamide] is greater than 100 µM; for `CC1(C)CC(=NNC(=O)c2[nH]nc3c2CCCC3)CC(C)(C)N1` [2,2,6,6-tetramethyl-4-(2-(4,5,6,7-tetrahydro-1H-indazole-3-carbonyl)hydrazono)piperidinium] it is greater than 100 µM; for `C[C@@H]1CN(CCC(=O)Nc2ccc(Br)cc2)C[C@H](C)O1` [(2R,6S)-4-(3-(4-bromophenylamino)-3-oxopropyl)-2,6-dimethylmorpholin-4-ium] it is greater than 100 µM.
Next, `O=C(Nc1ccc2c(c1)C(=O)NC2=O)c1ccc(Cl)c(Cl)c1` [3,4-dichloro-N-(1,3-dioxoisoindolin-5-yl)benzamide]: greater than 100 µM; `O=C(COc1ccc(Cl)cc1)Nc1cc(=O)[nH]c(=O)[nH]1` [2-(4-chlorophenoxy)-N-(2,6-dioxo-1,2,3,6-tetrahydropyrimidin-4-yl)acetamide]: greater than 100 µM.
With `O=C(COC(=O)c1n[nH]c2ccccc12)Nc1ccc(Cl)cn1` [2-(5-chloropyridin-2-ylamino)-2-oxoethyl 1H-indazole-3-carboxylate], the IC50 was greater than 100 µM.
`Cc1cc(Cl)ccc1NC(=O)C(=O)NC1CC(C)(C)NC(C)(C)C1` [N1-(4-chloro-2-methylphenyl)-N2-(2,2,6,6-tetramethylpiperidin-4-yl)oxalamide]: the IC50 is greater than 100 µM.
On to `CCN(CC)C(CNC(=O)C(=O)Nc1ccc(Cl)c(F)c1)CC(C)C` (configuration not stated) [N1-(4-chloro-3-fluorophenyl)-N2-(2-(diethylamino)-4-methylpentyl)oxalamide], for which the IC50 is greater than 100 µM.
Regarding `CCCN1CCCC(NC(=O)C(=O)Nc2ccc(Cl)c(F)c2)C1` (configuration not stated) [N1-(4-chloro-3-fluorophenyl)-N2-(1-propylpiperidin-3-yl)oxalamide], the IC50 stood at 58 µM.
The figure for `CN(C(=O)C(=O)NC1CC(C)(C)NC(C)(C)C1)c1ccc(Cl)cc1` [N1-(4-chlorophenyl)-N1-methyl-N2-(2,2,6,6-tetramethylpiperidin-4-yl)oxalamide] is greater than 100 µM; for `CC1(C)OC(=O)N(CCC(=O)Nc2ccc(Cl)cc2)[C@@]1(C)O` [(S)-N-(4-chlorophenyl)-3-(4-hydroxy-4,5,5-trimethyl-2-oxooxazolidin-3-yl)propanamide] it is greater than 100 µM; for `C[C@@H]1CCC[C@H](C)N1CCNC(=O)C(=O)Nc1ccc(Cl)c(F)c1` [N1-(4-chloro-3-fluorophenyl)-N2-(2-((2S,6R)-2,6-dimethylpiperidin-1-yl)ethyl)oxalamide] it is 75.5 µM.
For the compound `CC1(C)CC(NC(=O)CC(=O)Nc2ccc(Br)cc2)CC(C)(C)N1` [N1-(4-bromophenyl)-N3-(2,2,6,6-tetramethylpiperidin-4-yl)malonamide], the IC50 is greater than 100 µM.
As for `O=C(CN1CCCCCC1)Nc1ccc(Br)cc1` [2-(azepan-1-yl)-N-(4-bromophenyl)acetamide], the IC50 was greater than 100 µM.
Next, `CC1(C)CC(NC(=O)C(=O)Nc2cccc(OCc3ccccc3)c2)CC(C)(C)N1` [N1-(3-(benzyloxy)phenyl)-N2-(2,2,6,6-tetramethylpiperidin-4-yl)oxalamide]: greater than 100 µM; `CC1(C)CC(NC(=O)C(=O)Nc2ccc(Cl)cc2Cl)CC(C)(C)N1` [N1-(2,4-dichlorophenyl)-N2-(2,2,6,6-tetramethylpiperidin-4-yl)oxalamide]: greater than 100 µM.
Consider `O=C(Nc1ccc(Cl)cc1)c1cc(-n2cnnc2)n[nH]1` [N-(4-chlorophenyl)-5-(4H-1,2,4-triazol-4-yl)-1H-pyrazole-3-carboxamide], for which the IC50 is greater than 100 µM.
Turning to `CCNC(=S)N1CCN(CC(=O)Nc2ccc(Br)cc2)CC1` [4-(2-(4-bromophenylamino)-2-oxoethyl)-N-ethylpiperazine-1-carbimidothioic acid], the IC50 is greater than 100 µM.
Next, `CN1CCC(NC(=O)C(=O)Nc2ccc(Cl)c(F)c2)CC1` [N1-(4-chloro-3-fluorophenyl)-N2-(1-methylpiperidin-4-yl)oxalamide]: greater than 100 µM; `C[C@@H](Sc1nc(N)cc(=O)[nH]1)C(=O)Nc1ccc(Cl)cc1` [(R)-2-(6-amino-4-oxo-1,4-dihydropyrimidin-2-ylthio)-N-(4-chlorophenyl)propanamide]: greater than 100 µM.
Take `O=C(COc1ccc(Cl)cc1)Nc1ccc2[nH]c(=O)[nH]c2c1` [2-(4-chlorophenoxy)-N-(2-oxo-2,3-dihydro-1H-benzo[d]imidazol-5-yl)acetamide]: the IC50 is greater than 100 µM.
`CC1(C)CC(NC(=O)C(=O)Nc2ccc3ccccc3c2)CC(C)(C)N1` [N1-(naphthalen-2-yl)-N2-(2,2,6,6-tetramethylpiperidin-4-yl)oxalamide]: the IC50 was greater than 100 µM.
For `CN1CCN(C(CNC(=O)C(=O)Nc2ccc(Cl)c(F)c2)c2ccccc2Cl)CC1` (configuration not stated) [N1-(4-chloro-3-fluorophenyl)-N2-(2-(2-chlorophenyl)-2-(4-methylpiperazin-1-yl)ethyl)oxalamide], the IC50 turned out to be 73.6 µM.
Next, `CC(C)(CNC(=O)C(=O)Nc1ccc(Cl)c(F)c1)N1CCOCC1` [N1-(4-chloro-3-fluorophenyl)-N2-(2-methyl-2-morpholinopropyl)oxalamide]: greater than 100 µM.
Next, `CC1(C)CC(NC(=O)C(=O)Nc2ccc(Cl)c(F)c2)CC(C)(C)N1` [N1-(4-chloro-3-fluorophenyl)-N2-(2,2,6,6-tetramethylpiperidin-4-yl)oxalamide]: 74.8 µM; `O=C(NCC1COc2ccccc2O1)C(=O)Nc1ccc(Br)cc1` (configuration not stated) [N1-(4-bromophenyl)-N2-((2,3-dihydrobenzo[b][1,4]dioxin-2-yl)methyl)oxalamide]: greater than 100 µM.
Next, `CC1(C)CC(NCC(=O)Nc2ccc(Cl)c(F)c2)CC(C)(C)N1` [N-(4-chloro-3-fluorophenyl)-2-(2,2,6,6-tetramethylpiperidin-4-ylamino)acetamide]: greater than 100 µM; `CC1CN(CCNC(=O)C(=O)Nc2ccc(Cl)c(F)c2)CC(C)O1` (configuration not stated) [N1-(4-chloro-3-fluorophenyl)-N2-(2-(2,6-dimethylmorpholino)ethyl)oxalamide]: greater than 100 µM; `O=C(CSc1[nH]c(=O)nc2c1CCCC2)Nc1ccc(Cl)cc1` [N-(4-chlorophenyl)-2-(2-oxo-1,2,5,6,7,8-hexahydroquinazolin-4-ylthio)acetamide]: greater than 100 µM.
Consider `CC(C)Oc1cc(NC(=O)C(=O)NC2CC(C)(C)NC(C)(C)C2)ccc1Cl` [N1-(4-chloro-3-isopropoxyphenyl)-N2-(2,2,6,6-tetramethylpiperidin-4-yl)oxalamide], for which the IC50 is greater than 100 µM.
Next, `O=C(Nc1ccc(Cl)c(F)c1)C(=O)N[C@H]1CCN(Cc2ccccc2)C1` [(S)-N1-(1-benzylpyrrolidin-3-yl)-N2-(4-chloro-3-fluorophenyl)oxalamide]: greater than 100 µM; `Cc1cc(NC(=O)C(=O)c2c[nH]c3ccccc23)ccc1Br` [N-(4-bromo-3-methylphenyl)-2-(1H-indol-3-yl)-2-oxoacetamide]: greater than 100 µM; `CC(NC(=O)C(=O)Nc1ccc(Cl)c(F)c1)C(c1ccccc1Cl)N1CCOCC1` (configuration not stated) [N1-(4-chloro-3-fluorophenyl)-N2-(1-(2-chlorophenyl)-1-morpholinopropan-2-yl)oxalamide]: greater than 100 µM.
On to `O=C(Nc1ccc(Cl)c(F)c1)C(=O)N[C@@H]1CCN(Cc2ccccc2)C1` [(R)-N1-(1-benzylpyrrolidin-3-yl)-N2-(4-chloro-3-fluorophenyl)oxalamide], for which the IC50 came to 58.5 µM.
Take `CC(CC(=O)Nc1ccc(Br)cc1)Nc1cccc(CO)c1` (configuration not stated) [N-(4-bromophenyl)-3-(3-(hydroxymethyl)phenylamino)butanamide]: the IC50 was greater than 100 µM.
The figure for `O=C(Nc1ccc(Br)cc1)C(=O)Nc1cccc2ccccc12` [N1-(4-bromophenyl)-N2-(naphthalen-1-yl)oxalamide] is greater than 100 µM; for `O=C(CSCc1cc(=O)[nH][nH]1)Nc1ccc(Br)cc1` [N-(4-bromophenyl)-2-((5-hydroxy-1H-pyrazol-3-yl)methylthio)acetamide] it is greater than 100 µM.
